Assay results published in ChEMBL document CHEMBL3865781, “Recent advances in the discovery and development of antibacterial agents targeting the cell-division protein FtsZ” (Bioorg Med Chem, 2016).
In brackets after ≈: the same amount, converted by molar mass.

Tests used:
[1] = test system: Enterococcus faecalis; assay: Antimicrobial activity against vancomycin-sensitive Enterococcus faecalis after 18 hrs by broth microdilution method; type: functional
[2] = test system: Staphylococcus aureus; assay: Antibacterial activity against methicillin-sensitive Staphylococcus aureus after 18 hrs by broth microdilution method; type: functional
[3] = test system: Staphylococcus aureus; assay: Antibacterial activity against methicillin-resistant Staphylococcus aureus ATCC BAA-41 after 18 hrs by broth microdilution method; type: functional; conditions: ATCC BAA-41, 18 h
[4] = test system: Escherichia coli; assay: Antibacterial activity against Escherichia coli ATCC 25922 after 18 hrs by broth microdilution method; type: functional; conditions: ATCC 25922, 18 h
[5] = test system: Klebsiella pneumoniae; assay: Antibacterial activity against Klebsiella pneumoniae ATCC BAA-1144 after 18 hrs by broth microdilution method; type: functional; conditions: ATCC BAA-1144, 18 h
[6] = Inhibition of Escherichia coli FtsZ polymerization expressed in Escherichia coli BL21 assessed as reduction in light scattering intensity in presence of GTP by fluorescence spectrometric analysis
[7] = test system: Staphylococcus aureus; assay: Antibacterial activity against Staphylococcus aureus ATCC 29213 after 18 hrs by broth microdilution assay; type: functional; conditions: ATCC 29213, 18 h
[8] = target: T1, Cell division protein FtsZ (Staphylococcus aureus, UniProt P0A031); assay: Inhibition of Staphylococcus aureus ATCC 29213 N-terminal His6-tagged FtsZ GTPase activity expressed in Escherichia coli BL21(DE3) assessed as reduction in inorganic phosphate release preincubated for 10 mins followed by GTP addition after 30 mins
T1 sequence (P0A031 whole entry): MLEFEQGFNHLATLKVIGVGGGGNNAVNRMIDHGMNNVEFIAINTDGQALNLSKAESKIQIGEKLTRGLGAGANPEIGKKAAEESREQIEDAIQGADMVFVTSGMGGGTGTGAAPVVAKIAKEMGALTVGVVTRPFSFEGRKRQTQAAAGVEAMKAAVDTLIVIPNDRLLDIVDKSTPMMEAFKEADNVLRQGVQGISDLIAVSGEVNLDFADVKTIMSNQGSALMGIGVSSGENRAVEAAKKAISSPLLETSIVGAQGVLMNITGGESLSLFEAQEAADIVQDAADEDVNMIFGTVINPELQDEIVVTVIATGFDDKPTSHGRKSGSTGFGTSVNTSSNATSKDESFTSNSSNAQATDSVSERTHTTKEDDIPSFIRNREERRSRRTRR

[9] = test system: Escherichia coli; assay: Antibacterial activity against Escherichia coli ATCC 25922 after 18 hrs by broth microdilution assay; type: functional; conditions: ATCC 25922, 18 h
[10] = test system: Bacillus subtilis; assay: Antibacterial activity against Bacillus subtilis; type: functional
[11] = Displacement of mant-GTP from Bacillus subtilis FtsZ by spectrofluorometric assay
[12] = test system: Mycobacterium tuberculosis; assay: Antimycobacterial activity against Mycobacterium tuberculosis H37Rv after 2 weeks; type: functional; conditions: 336 h
[13] = test system: Bacillus subtilis; assay: Inhibition of Bacillus subtilis FtsZ GTPase activity expressed in Escherichia coli BL21(DE3) pLysS at 24 uM preincubated for 15 mins followed by GTP addition after 10 mins by malachite green ammonium molybdate assay relative to control
[14] = test system: Bacillus subtilis; assay: Inhibition of Bacillus subtilis FtsZ polymerization expressed in Escherichia coli BL21(DE3) pLysS at 5 uM preincubated for 15 mins followed by GTP addition by spectrofluorometric analysis relative to control
[15] = test system: Bacillus subtilis; assay: Inhibition of Bacillus subtilis FtsZ polymerization expressed in Escherichia coli BL21(DE3) pLysS at 2 uM preincubated for 15 mins followed by GTP addition by spectrofluorometric analysis relative to control
[16] = test system: Bacillus subtilis; assay: Inhibition of Bacillus subtilis FtsZ polymerization expressed in Escherichia coli BL21(DE3) pLysS at 10 uM preincubated for 15 mins followed by GTP addition by spectrofluorometric analysis relative to control
[17] = test system: Enterococcus faecalis; assay: Antimicrobial activity against vancomycin-resistant Enterococcus faecalis after 18 hrs by broth microdilution method; type: functional
[18] = target: T1, Cell division protein FtsZ; assay: Inhibition of Staphylococcus aureus N-terminal His6-tagged FtsZ GTPase activity expressed in Escherichia coli BL21(DE3) preincubated for 10 mins followed by GTP addition after 30 mins by cytophos phosphate assay
[19] = test system: Escherichia coli; assay: Antibacterial activity against Escherichia coli K12 MG1655 after 4 hrs; type: functional; conditions: K-12 substr. MG1655, 4 h
[20] = test system: Bacillus subtilis; assay: Antibacterial activity against Bacillus subtilis 168 harboring trpC2 after 4 hrs; type: functional; conditions: subsp. subtilis str. 168, 4 h

Which results are given for Oc1ccc(/C=C/c2cc(O)cc(O)c2)cc1 [RESVERATROL]?
MIC [1]: 4 to 16 µg/mL (≈ 17.5 to 70.1 µM); MIC [2]: 2 to 8 µg/mL (≈ 8.76 to 35 µM); MIC [3]: 2 to 8 µg/mL (≈ 8.76 to 35 µM); MIC [4]: 32 to 128 µg/mL (≈ 140 to 561 µM); MIC [5]: 32 to 128 µg/mL (≈ 140 to 561 µM)

Which MIC [1] does the source give for COc1cc(OC)c(OC)cc1/C=C/C(=O)O here?
Its MIC is 4 to 16 µg/mL (≈ 16.8 to 67.2 µM).

And the MIC [2]?
Its MIC is 2 to 8 µg/mL (≈ 8.39 to 33.6 µM).

What about the MIC [3] of the same compound?
The MIC was 2 to 8 µg/mL (≈ 8.39 to 33.6 µM).

And the MIC [4]?
The MIC was 32 to 128 µg/mL (≈ 134 to 537 µM).

And the MIC [5]?
The MIC was 32 to 128 µg/mL (≈ 134 to 537 µM).

And the IC50 [6]?
The IC50 was 149 µM.

Which results are given for O=C(O)/C=C/c1ccc(O)c(O)c1 [CAFFEIC ACID]?
MIC [1]: 4 to 16 µg/mL (≈ 22.2 to 88.8 µM); MIC [2]: 2 to 8 µg/mL (≈ 11.1 to 44.4 µM); MIC [3]: 2 to 8 µg/mL (≈ 11.1 to 44.4 µM); MIC [4]: 32 to 128 µg/mL (≈ 178 to 710 µM); MIC [5]: 32 to 128 µg/mL (≈ 178 to 710 µM); IC50 [6]: 106 µM

With O=c1ccc2ccccc2o1 [COUMARIN] as the compound, how does the MIC [1] read?
The MIC was 4 to 16 µg/mL (≈ 27.4 to 109 µM).

And the MIC [2]?
Its MIC is 2 to 8 µg/mL (≈ 13.7 to 54.7 µM).

And the MIC [3]?
Its MIC is 2 to 8 µg/mL (≈ 13.7 to 54.7 µM).

And the MIC [4]?
The MIC was 32 to 128 µg/mL (≈ 219 to 876 µM).

What about the MIC [5] of the same compound?
The MIC was 32 to 128 µg/mL (≈ 219 to 876 µM).

With CCC(CC)c1cc([C@H]2CN3CC[C@H]2C[C@@H]3CN)nc(-c2ccncc2)n1 as the compound, how does the MIC [7] read?
The MIC was 24.6 µM (≈ 8.99 µg/mL).

What about the IC50 [8] of the same compound?
Its IC50 is 37.5 µM.

What about the MIC [9] of the same compound?
The MIC was 49.6 µM (≈ 18.1 µg/mL).

With O=C(/C=C/c1ccc(O)c(O)c1)O[C@@H]1C[C@](O)(C(=O)O)C[C@@H](O)[C@H]1O [CHLOROGENIC ACID] as the compound, how does the MIC [1] read?
Its MIC is 4 to 16 µg/mL (≈ 11.3 to 45.2 µM).

What about the MIC [2] of the same compound?
The MIC was 2 to 8 µg/mL (≈ 5.64 to 22.6 µM).

And the MIC [3]?
Its MIC is 2 to 8 µg/mL (≈ 5.64 to 22.6 µM).

And the MIC [4]?
The MIC was 32 to 128 µg/mL (≈ 90.3 to 361 µM).

What about the MIC [5] of the same compound?
The MIC was 32 to 128 µg/mL (≈ 90.3 to 361 µM).

And the IC50 [6]?
Its IC50 is 69.5 µM.

For COc1ccc(/C=C/C(=O)O)cc1OC [O,O'-DIMETHYLCAFFEIC ACID], which MIC [1] is on record?
Its MIC is 4 to 16 µg/mL (≈ 19.2 to 76.8 µM).

What about the MIC [2] of the same compound?
Its MIC is 2 to 8 µg/mL (≈ 9.61 to 38.4 µM).

What about the MIC [3] of the same compound?
Its MIC is 2 to 8 µg/mL (≈ 9.61 to 38.4 µM).

What about the MIC [4] of the same compound?
The MIC was 32 to 128 µg/mL (≈ 154 to 615 µM).

And the MIC [5]?
The MIC was 32 to 128 µg/mL (≈ 154 to 615 µM).

What about the IC50 [6] of the same compound?
Its IC50 is greater than 250 µM.

For O=C(Oc1cc(OC(=O)c2cc(O)c(O)c(O)c2)c2ccccc2c1)c1cc(O)c(O)c(O)c1, which MIC [10] is on record?
The MIC was 100 µM (≈ 46.4 µg/mL).

What about the Kd [11] of the same compound?
Its Kd is 0.4 to 0.8 µM.

Which MIC [12] does the source give for O=c1ccc2ccc(O)cc2o1 [UMBELLIFERONE] here?
Its MIC is 58 µg/mL (≈ 358 µM).

For Cc1nc2ccccc2n1C(=O)/C=C/c1ccc(F)cc1, which MIC [1] is on record?
The MIC was 4 to 16 µg/mL (≈ 14.3 to 57.1 µM).

And the MIC [2]?
Its MIC is 2 to 8 µg/mL (≈ 7.14 to 28.5 µM).

And the MIC [3]?
Its MIC is 2 to 8 µg/mL (≈ 7.14 to 28.5 µM).

What about the MIC [4] of the same compound?
The MIC was 32 to 128 µg/mL (≈ 114 to 457 µM).

What about the MIC [5] of the same compound?
Its MIC is 32 to 128 µg/mL (≈ 114 to 457 µM).

What does the source list for CC1=CC(=O)c2c(O)cccc2C1=O [PLUMBAGIN]?
inhibition [13]: 58%; inhibition [14]: 33%; MIC [1]: 4 to 16 µg/mL (≈ 21.3 to 85 µM); inhibition [15]: 26%; MIC [2]: 2 to 8 µg/mL (≈ 10.6 to 42.5 µM); MIC [3]: 2 to 8 µg/mL (≈ 10.6 to 42.5 µM); inhibition [16]: 45%; MIC [4]: 32 to 128 µg/mL (≈ 170 to 680 µM); MIC [17]: 4 to 16 µg/mL (≈ 21.3 to 85 µM); MIC [5]: 32 to 128 µg/mL (≈ 170 to 680 µM)

For COc1ccc2cc3[n+](cc2c1OCCCOc1ccc(Cl)cc1)CCc1cc2c(cc1-3)OCO2.[Br-], which IC50 [18] is on record?
Its IC50 is 66.6 µM.

And the MIC [1]?
Its MIC is 4 to 16 µg/mL.

And the MIC [2]?
The MIC was 2 to 8 µg/mL.

And the MIC [3]?
Its MIC is 2 to 8 µg/mL.

What about the MIC [4] of the same compound?
The MIC was 32 to 128 µg/mL.

What about the MIC [5] of the same compound?
Its MIC is 32 to 128 µg/mL.

For O=C(Oc1cc(OC(=O)c2cc(O)cc(O)c2)c2ccccc2c1)c1cc(O)cc(O)c1, which MIC [10] is on record?
Its MIC is 25 µM (≈ 10.8 µg/mL).

And the Kd [11]?
The Kd was 0.4 to 0.8 µM.

For COc1cc2cc3c4cc(-c5ccc(-c6ccccc6)cc5)c(OC)c(OC)c4cc[n+]3c(C(C)C)c2cc1OC, which MIC [1] is on record?
The MIC was 4 to 16 µg/mL.

What about the MIC [2] of the same compound?
The MIC was 2 to 8 µg/mL.

And the MIC [3]?
The MIC was 2 to 8 µg/mL.

And the MIC [4]?
The MIC was 32 to 128 µg/mL.

What about the MIC [5] of the same compound?
The MIC was 32 to 128 µg/mL.

What does the source list for COc1cc(/C=C/C(=O)CC(=O)/C=C/c2ccc(O)c(OC)c2)ccc1O [CURCUMIN]?
MIC [1]: 4 to 16 µg/mL (≈ 10.9 to 43.4 µM); IC50 [19]: 58 µM; MIC [2]: 2 to 8 µg/mL (≈ 5.43 to 21.7 µM); MIC [3]: 2 to 8 µg/mL (≈ 5.43 to 21.7 µM); MIC [4]: 32 to 128 µg/mL (≈ 86.9 to 347 µM); IC50 [20]: 17 µM; MIC [5]: 32 to 128 µg/mL (≈ 86.9 to 347 µM)

With COc1cc(/C=C/C(=O)O)ccc1O [FERULATE] as the compound, how does the MIC [1] read?
Its MIC is 4 to 16 µg/mL (≈ 20.6 to 82.4 µM).

And the MIC [2]?
The MIC was 2 to 8 µg/mL (≈ 10.3 to 41.2 µM).

What about the MIC [3] of the same compound?
Its MIC is 2 to 8 µg/mL (≈ 10.3 to 41.2 µM).

And the MIC [4]?
The MIC was 32 to 128 µg/mL (≈ 165 to 659 µM).

What about the MIC [5] of the same compound?
The MIC was 32 to 128 µg/mL (≈ 165 to 659 µM).
